Reference: publication PMC12326981, “Novel C5α-substituted carbapenems enhance Mycobacterium abscessus killing via selective target binding and reduced hydrolysis by BlaMab” (Antimicrobial Agents and Chemotherapy, 2025)
Where “and” joins values, the source holds several entries; their conditions need not be identical. Equal values may be shown once.

What was measured:
Mab ATCC 19977 [1] = experiment: MIC testing with drugs pre-incubated in 7H9 broth (effect of drug instability); assay type: cell-based, Mycobacterium abscessus; settings: for MIC: Mycobacteroides abscessus, ATCC19977; for MIC rise after 24 and 48 h incubation vs nonincubated: drug incubated 24 and 48 h
Protocol: (§1) MICs were determined in duplicate following Clinical Laboratory Standards Institute ([52]) guidelines using Middlebrook 7H9 broth supplemented with 10% (vol/vol) oleic acid-albumin-dextrose-catalase (OADC) and 0.05% (vol/vol) Tween 80, with an inoculum of 5 × 10⁵ CFU/mL. MIC testing of two C5α-substituted carbapenems was conducted both individually and in combination with cephalosporins (cefuroxime and ceftaroline), penicillins (amoxicillin), or BLIs (avibactam or durlobactam + sulbactam). Avibactam, durlobactam, cefuroxime, ceftaroline, and amoxicillin were fixed at concentrations of 4, 1, 2, 4, and 4 mg/L, respectively. Amoxicillin was combined with 4 mg/L avibactam, as it is highly susceptible to hydrolysis by BlaMab ([12], [15], [25]). The MIC was defined as the lowest antibiotic concentration that inhibited visible bacterial growth following 48 h of incubation at 30°C.

PBP-lipo = biological target: T1, PBP-lipo (Mycobacteroides abscessus, UniProt B1MDC3); experiment: Bocillin-FL competitive binding assay; settings: Bocillin-FL competition, 1:10 molar ratio
T1 construct: made in house; host or cells: Escherichia coli BL21 (DE3)
Protocol: The binding of JDB/NA-1-157 and JDB/NA-1-208 to PBP-lipo was assessed using a Bocillin-FL competitive assay as previously described ([25]). Briefly, purified PBP-lipo and the compounds (at a 1:10 molar ratio) were incubated in a buffer containing 10 mM sodium phosphate (pH 7.4) and 150 mM NaCl for 2 h at room temperature, followed by additional incubation with 1 µM Bocillin FL for 4 h at 37°C. Samples were boiled and analyzed by SDS-PAGE. The PBP-lipo:Bocilli complexes were detected via fluorescence at 488 nm using an Azure 300 gel imaging system. Band intensity was quantified using GelAnalyzer software.

[2] = Thermal stability in 7H9 broth at 30°C; settings: for Degradation percentage / degradation after 24 h: 7H9 broth, 30°C; for Degradation percentage: 24 h; for degradation after 24 h: 50 mg/L and 10 mg/L (Fig. S2); for half-life: buffer
Protocol: The stability of the two compounds in 7H9 broth was assessed at 30°C at drug concentrations of 10, 50, and 100 mg/L, with each condition tested in triplicate. Absorbance at 240 nm was measured every 2 h over a 24 h period using a BioTek Synergy2 multimode reader, with data analyzed via Gen5 software to monitor degradation or changes in stability. To evaluate the impact of thermal instability, MIC tests were performed using Mab ATCC 19977. Compounds were tested at time points of 0 h (no incubation) and 6, 24, and 48 h of incubation at 30°C. Imipenem and meropenem, known to be thermally unstable β-lactams, were included as positive controls. The MIC results were recorded after 48 h of incubation. Detailed MIC testing protocols were identical to those described below.

LDT2 = LDT2 (Mycobacteroides abscessus, UniProt B1MMQ4); experiment: Apparent inhibition constant (nitrocefin, Dixon plot); assay type: biochemical, Mycobacterium abscessus; settings: Ki,app
Protocol: (§2) Steady-state kinetic studies with JDB/NA-1-157 and JDB/NA-1-208 were performed using purified LDTs and PBPs, including LDT1–5, PBP-B, PBP-lipo, and D,D-carboxypeptidase. The assays were conducted on a BioTek Synergy2 multimode reader equipped with Gen5 software. To determine the Michaelis constant (Km^NCF) for each LDT and PBP, a wide range of NCF concentrations was tested, while the enzyme concentrations were fixed. Absorbance changes at 482 nm were monitored over 10 min. Steady-state kinetic parameters (Vmax and Km) were derived by fitting the experimental data to the Henri–Michaelis–Menten equation using nonlinear least-squares regression in GraphPad Prism version 9. The reaction velocity (v) at a given substrate concentration ([S]) was calculated using equation 2: […]
(§3) The apparent inhibition constants (Ki,app) for JDB/NA-1-157 and JDB/NA-1-208 were determined under the following conditions: an NCF concentration of 5 × Km, fixed concentrations of LDT or PBP enzymes, and varying concentrations of JDB/NA-1-157 and JDB/NA-1-208. Absorbance changes at 482 nm were monitored over a 30 min period for each inhibitor concentration. The data were linearized using a Dixon plot, which involves plotting the reciprocal of the absorbance change (1/ΔA) against the concentrations of JDB/NA-1-157 or JDB/NA-1-208. Apparent Ki,app values were derived from the intersection points on the Dixon plot and were subsequently corrected for substrate concentration and enzyme affinity using equation 3:
(§4) (3) Ki,app=observed Ki,app/1+[NCF]/Km NCF.

LDT1 = LDT1 (Mycobacteroides abscessus, UniProt B1MDC1); experiment: as above; assay type: biochemical, Mycobacterium abscessus; settings: Ki,app
Protocol: as §2, §3, §4

PonA2 = PonA2 (Mycobacteroides abscessus, UniProt B1MFV7); experiment: as above; assay type: biochemical, Mycobacterium abscessus; settings: Ki,app
Protocol: as §2, §3, §4

Mab ATCC 19977 [3] = experiment: MIC testing against Mab ATCC 19977, single agent and combinations; assay type: cell-based, Mycobacterium abscessus
Protocol: as §1, with “Amoxicillin was combined with 4 mg/L avibactam, as it is highly susceptible to hydrolysis by BlaMab ([12], [15], [25]).” left out

[4] = drug incubated 6 h in 7H9 broth at 30°C
[5] = drug incubated 24 h in 7H9 broth at 30°C
[6] = drug incubated 48 h in 7H9 broth at 30°C
[7] = Mycobacteroides abscessus, ATCC19977, 48 h, alone (single agent), read-out: MIC

LDT1, sequence (B1MDC1 entry or part of it): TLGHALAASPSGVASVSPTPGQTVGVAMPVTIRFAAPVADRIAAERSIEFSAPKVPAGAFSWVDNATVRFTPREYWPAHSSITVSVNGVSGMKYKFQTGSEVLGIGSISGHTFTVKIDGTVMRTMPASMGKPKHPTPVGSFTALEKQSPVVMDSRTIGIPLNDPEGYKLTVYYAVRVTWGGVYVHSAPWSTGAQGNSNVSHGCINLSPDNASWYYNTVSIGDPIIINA
PonA2, sequence (B1MFV7 entry or part of it): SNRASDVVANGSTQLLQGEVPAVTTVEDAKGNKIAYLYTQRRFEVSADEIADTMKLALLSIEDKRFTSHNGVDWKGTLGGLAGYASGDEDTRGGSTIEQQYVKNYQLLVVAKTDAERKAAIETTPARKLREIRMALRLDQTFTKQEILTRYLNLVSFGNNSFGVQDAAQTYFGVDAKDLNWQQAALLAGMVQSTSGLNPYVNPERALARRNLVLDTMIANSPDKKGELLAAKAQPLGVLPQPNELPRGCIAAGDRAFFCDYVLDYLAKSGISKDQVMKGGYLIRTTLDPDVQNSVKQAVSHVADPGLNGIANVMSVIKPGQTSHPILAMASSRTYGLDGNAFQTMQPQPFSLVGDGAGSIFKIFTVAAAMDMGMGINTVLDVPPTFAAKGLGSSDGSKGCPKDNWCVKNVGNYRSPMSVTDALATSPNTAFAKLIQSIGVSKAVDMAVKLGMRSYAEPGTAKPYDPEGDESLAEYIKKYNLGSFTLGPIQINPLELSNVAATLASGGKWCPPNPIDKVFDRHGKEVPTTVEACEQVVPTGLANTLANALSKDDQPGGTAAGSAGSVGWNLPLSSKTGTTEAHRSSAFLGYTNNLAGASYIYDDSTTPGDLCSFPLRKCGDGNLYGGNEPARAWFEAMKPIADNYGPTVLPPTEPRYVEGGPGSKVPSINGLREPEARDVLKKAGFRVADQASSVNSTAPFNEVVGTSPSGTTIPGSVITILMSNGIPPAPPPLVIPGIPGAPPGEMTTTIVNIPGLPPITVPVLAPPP
T1 sequence (B1MDC3 entry or part of it): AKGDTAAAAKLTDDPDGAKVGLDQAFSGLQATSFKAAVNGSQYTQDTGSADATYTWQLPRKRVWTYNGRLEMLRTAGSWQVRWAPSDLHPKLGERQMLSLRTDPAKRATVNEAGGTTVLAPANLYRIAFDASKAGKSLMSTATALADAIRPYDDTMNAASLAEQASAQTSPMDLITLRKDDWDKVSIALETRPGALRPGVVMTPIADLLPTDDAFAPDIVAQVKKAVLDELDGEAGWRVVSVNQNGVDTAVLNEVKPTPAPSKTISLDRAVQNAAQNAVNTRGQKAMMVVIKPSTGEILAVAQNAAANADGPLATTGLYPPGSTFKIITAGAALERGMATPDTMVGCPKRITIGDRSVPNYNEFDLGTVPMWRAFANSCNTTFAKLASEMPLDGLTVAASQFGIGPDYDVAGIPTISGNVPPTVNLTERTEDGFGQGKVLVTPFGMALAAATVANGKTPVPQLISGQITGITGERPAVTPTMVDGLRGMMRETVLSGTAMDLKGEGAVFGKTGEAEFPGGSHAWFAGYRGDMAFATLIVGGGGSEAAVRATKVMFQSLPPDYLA
LDT2, sequence (B1MMQ4 entry or part of it): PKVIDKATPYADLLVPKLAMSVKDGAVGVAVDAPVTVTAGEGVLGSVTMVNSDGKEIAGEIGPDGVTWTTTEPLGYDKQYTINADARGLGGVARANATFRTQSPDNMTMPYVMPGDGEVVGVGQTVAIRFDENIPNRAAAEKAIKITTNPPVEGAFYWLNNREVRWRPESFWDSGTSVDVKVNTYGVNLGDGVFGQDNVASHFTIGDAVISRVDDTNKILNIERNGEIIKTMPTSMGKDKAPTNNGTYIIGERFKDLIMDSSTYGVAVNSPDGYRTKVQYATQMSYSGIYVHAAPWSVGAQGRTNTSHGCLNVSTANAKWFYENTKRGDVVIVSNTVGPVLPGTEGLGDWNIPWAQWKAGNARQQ

SMILES | MIC (Mab ATCC 19977 [1]; [4]) | MIC (Mab ATCC 19977 [1]; [5]) | MIC (Mab ATCC 19977 [1]; [6]) | MIC (Mab ATCC 19977 [1]; no incubation of drug) | MIC rise after 24 and 48 h incubation vs nonincubated (Mab ATCC 19977 [1]) | binding to PBP-lipo (PBP-lipo) | Degradation percentage ([2]; 10 mg/L) | degradation after 24 h [2] | Degradation percentage ([2]; 50 mg/L) | half-life [2] | Ki (LDT2) | Ki (LDT1) | Ki (PonA2) | MIC (Mab ATCC 19977 [3]; +AMX (4 mg/L) + AVI (4 mg/L)) | MIC (Mab ATCC 19977 [3]; +AVI (4 mg/L)) | MIC (Mab ATCC 19977 [3]; +CFT (4 mg/L)) | MIC (Mab ATCC 19977 [3]; +CXM (2 mg/L)) | MIC (Mab ATCC 19977 [3]; +DUR (1 mg/L)) | MIC (Mab ATCC 19977 [3]; [7]) | also measured
CC[C@]12CC(S[C@@H]3CN[C@H](C(=O)N(C)C)C3)=C(C(=O)O)N1C(=O)[C@@H]2[C@@H](C)O [JDB/NA-1-208] | 16 µg/mL | 32 µg/mL | 32 µg/mL | 16 µg/mL | twofold | lacks binding | 0.6% | approximately 10% | 10.5% | 66 h | 166 nM | 1110 nM | 352 nM | ≤0.0313 µg/mL | 32 µg/mL | 4 µg/mL | 8 µg/mL | 32 µg/mL | 32 µg/mL | –
C[C@@H](O)[C@H]1C(=O)N2C(C(=O)O)=C(S[C@@H]3CN[C@H](C(=O)N(C)C)C3)C[C@]12C [JDB/NA-1-157] | 0.25 µg/mL | 2 µg/mL | 2 µg/mL | 0.25 µg/mL | fourfold | form acyl-enzyme complexes | 11.9% | 16% | 16.2% | 50 h | 130 nM | 7980 nM | 7.82 nM | 0.125 µg/mL | 0.5 µg/mL | 0.125 µg/mL | 0.125 µg/mL | 0.25 µg/mL | 0.5 µg/mL | Degradation percentage ([2]; 100 mg/L): 16% and 16.6%; fold reduction in MIC on combination (Mab ATCC 19977 [3]; combined with cefuroxime, ceftaroline, or amoxicillin (with avibactam), Table 1, Fig. 3): ≤ 4 fold
